Patent US9695172B2, “Diazepane derivatives and uses thereof” (Dana-Farber Cancer Institute, Inc., priority 2014, dated 2017)
Like-named read-outs stand apart in the source and are kept apart here.

Experiments:
AURKC = AURKC (Homo sapiens (Human), UniProt Q9UQB9); assay: AURKC IC50; format: biochemical
NOMO-1 = assay: Cellular assay, cell viability (ATPlite), NOMO-1; format: cell-based; details: NOMO-1 cell line
Experimental: (§1) The compounds of the invention are also evaluated in the BRD4 dependant cell line for the cellular activity to generate cellular IC50 values.
(§2) Cells (e.g., BRD4 dependant cells) were counted and adjusted to 60,000 cells/mL. Using a Biotek EL406, 50 μL of the cells in media were distributed into 384 well white plates from Thermo. Immediately after plating, compounds of the invention in DMSO were distributed to plates. For large plate sets, cells were returned to a 37° C. incubator while not in use. The compounds were added to plates using a 100 nL 384 well pin transfer manifold on a Janus workstation. Stocks were arrayed in 10 point quadruplicate dose response in DMSO stock in 384-well Greiner compound plates. After addition of the compounds, plates were incubated for three days in a 37° C. incubator. Cell viability was read out using ATPlite from Perkin Elmer. Plates were removed from the incubator and brought to room temperature prior to use. Lyophilized powder was resuspended in lysis buffer and diluted 1:2 with DI water. 25 μL of this solution was added to each well using the Biotek liquid handler. Plates were sealed with adherent aluminum seals prior to vortexing and spinning down at 1000 g for 1 minute. Plates were incubated for 15 minutes at room temperature before signal was read on an Envision Plate Reader.

BRDT = BRDT (Homo sapiens (Human), UniProt Q58F21); assay: BRDT IC50; format: binding
Experimental: (§3) Assays were performed with minor modifications from the manufacturer's protocol (PerkinElmer, USA). All reagents were diluted in 50 mM HEPES, 150 mM NaCl, 0.1% w/v BSA, and 0.01% w/v Tween 20 at pH 7.5 and allowed to equilibrate to room temperature prior to addition to plates. After addition of Alpha beads to master solutions, all subsequent steps were performed in low light conditions. […] Addition to wells was performed with either a multichannel pipet (for optimization experiments) or a Biotek EL406 liquid handler. After a 1000-rpm spin-down for 1 minute, 100 nL of the solutions of the compounds of the invention from stock plates were added by pin transfer using a Janus Workstation (PerkinElmer, USA). The streptavidin-coated donor beads (25 μg/ml final) were added as with previous solution in a 2×, 10 μL volume. Following this addition, the plates were sealed with foil to block light exposure and to prevent evaporation. The plates were spun down again at 1000 rpm for 1 minute. Next, the plates were incubated in the room with the plate reader (for temperature equilibration) for 1.5 hour prior to reading the assay.

MOLM-13 = assay: Cellular assay, cell viability (ATPlite), MOLM-13; format: cell-based; details: MOLM-13 cell line
Experimental: as §1, §2

AURKA = AURKA (Homo sapiens (Human), UniProt O14965); assay: AURKA IC50; format: biochemical
MV411 = assay: Cellular assay, cell viability (ATPlite), MV411; format: cell-based; details: MV411 cell line
Experimental: as §1, §2

AURKB = AURKB (Homo sapiens (Human), UniProt Q96GD4); assay: AURKB IC50; format: biochemical
BRD4 = BRD4 (Homo sapiens (Human), UniProt O60885); assay: BRD4 IC50 (acetyl-histone binding assay)
Experimental: as §3

797 = assay: Cellular assay, cell viability (ATPlite), 797; format: cell-based; details: 797 cell line
Experimental: as §1, §2

LRRK2 = LRRK2 (Homo sapiens (Human), UniProt Q5S007); assay: LRRK2 IC50; format: biochemical
TF-1 = assay: Cellular assay, cell viability (ATPlite), TF-1; format: cell-based; details: TF-1 cell line
Experimental: as §1, §2

Kasumi-1 = assay: Cellular assay, cell viability (ATPlite), Kasumi-1; format: cell-based; details: Homo sapiens; Kasumi-1 cell line
Experimental: as §1, §2

[1] = first BRD4 value listed for the compound
[2] = second BRD4 value listed for the compound

Sequence of LRRK2 (Q5S007 whole entry): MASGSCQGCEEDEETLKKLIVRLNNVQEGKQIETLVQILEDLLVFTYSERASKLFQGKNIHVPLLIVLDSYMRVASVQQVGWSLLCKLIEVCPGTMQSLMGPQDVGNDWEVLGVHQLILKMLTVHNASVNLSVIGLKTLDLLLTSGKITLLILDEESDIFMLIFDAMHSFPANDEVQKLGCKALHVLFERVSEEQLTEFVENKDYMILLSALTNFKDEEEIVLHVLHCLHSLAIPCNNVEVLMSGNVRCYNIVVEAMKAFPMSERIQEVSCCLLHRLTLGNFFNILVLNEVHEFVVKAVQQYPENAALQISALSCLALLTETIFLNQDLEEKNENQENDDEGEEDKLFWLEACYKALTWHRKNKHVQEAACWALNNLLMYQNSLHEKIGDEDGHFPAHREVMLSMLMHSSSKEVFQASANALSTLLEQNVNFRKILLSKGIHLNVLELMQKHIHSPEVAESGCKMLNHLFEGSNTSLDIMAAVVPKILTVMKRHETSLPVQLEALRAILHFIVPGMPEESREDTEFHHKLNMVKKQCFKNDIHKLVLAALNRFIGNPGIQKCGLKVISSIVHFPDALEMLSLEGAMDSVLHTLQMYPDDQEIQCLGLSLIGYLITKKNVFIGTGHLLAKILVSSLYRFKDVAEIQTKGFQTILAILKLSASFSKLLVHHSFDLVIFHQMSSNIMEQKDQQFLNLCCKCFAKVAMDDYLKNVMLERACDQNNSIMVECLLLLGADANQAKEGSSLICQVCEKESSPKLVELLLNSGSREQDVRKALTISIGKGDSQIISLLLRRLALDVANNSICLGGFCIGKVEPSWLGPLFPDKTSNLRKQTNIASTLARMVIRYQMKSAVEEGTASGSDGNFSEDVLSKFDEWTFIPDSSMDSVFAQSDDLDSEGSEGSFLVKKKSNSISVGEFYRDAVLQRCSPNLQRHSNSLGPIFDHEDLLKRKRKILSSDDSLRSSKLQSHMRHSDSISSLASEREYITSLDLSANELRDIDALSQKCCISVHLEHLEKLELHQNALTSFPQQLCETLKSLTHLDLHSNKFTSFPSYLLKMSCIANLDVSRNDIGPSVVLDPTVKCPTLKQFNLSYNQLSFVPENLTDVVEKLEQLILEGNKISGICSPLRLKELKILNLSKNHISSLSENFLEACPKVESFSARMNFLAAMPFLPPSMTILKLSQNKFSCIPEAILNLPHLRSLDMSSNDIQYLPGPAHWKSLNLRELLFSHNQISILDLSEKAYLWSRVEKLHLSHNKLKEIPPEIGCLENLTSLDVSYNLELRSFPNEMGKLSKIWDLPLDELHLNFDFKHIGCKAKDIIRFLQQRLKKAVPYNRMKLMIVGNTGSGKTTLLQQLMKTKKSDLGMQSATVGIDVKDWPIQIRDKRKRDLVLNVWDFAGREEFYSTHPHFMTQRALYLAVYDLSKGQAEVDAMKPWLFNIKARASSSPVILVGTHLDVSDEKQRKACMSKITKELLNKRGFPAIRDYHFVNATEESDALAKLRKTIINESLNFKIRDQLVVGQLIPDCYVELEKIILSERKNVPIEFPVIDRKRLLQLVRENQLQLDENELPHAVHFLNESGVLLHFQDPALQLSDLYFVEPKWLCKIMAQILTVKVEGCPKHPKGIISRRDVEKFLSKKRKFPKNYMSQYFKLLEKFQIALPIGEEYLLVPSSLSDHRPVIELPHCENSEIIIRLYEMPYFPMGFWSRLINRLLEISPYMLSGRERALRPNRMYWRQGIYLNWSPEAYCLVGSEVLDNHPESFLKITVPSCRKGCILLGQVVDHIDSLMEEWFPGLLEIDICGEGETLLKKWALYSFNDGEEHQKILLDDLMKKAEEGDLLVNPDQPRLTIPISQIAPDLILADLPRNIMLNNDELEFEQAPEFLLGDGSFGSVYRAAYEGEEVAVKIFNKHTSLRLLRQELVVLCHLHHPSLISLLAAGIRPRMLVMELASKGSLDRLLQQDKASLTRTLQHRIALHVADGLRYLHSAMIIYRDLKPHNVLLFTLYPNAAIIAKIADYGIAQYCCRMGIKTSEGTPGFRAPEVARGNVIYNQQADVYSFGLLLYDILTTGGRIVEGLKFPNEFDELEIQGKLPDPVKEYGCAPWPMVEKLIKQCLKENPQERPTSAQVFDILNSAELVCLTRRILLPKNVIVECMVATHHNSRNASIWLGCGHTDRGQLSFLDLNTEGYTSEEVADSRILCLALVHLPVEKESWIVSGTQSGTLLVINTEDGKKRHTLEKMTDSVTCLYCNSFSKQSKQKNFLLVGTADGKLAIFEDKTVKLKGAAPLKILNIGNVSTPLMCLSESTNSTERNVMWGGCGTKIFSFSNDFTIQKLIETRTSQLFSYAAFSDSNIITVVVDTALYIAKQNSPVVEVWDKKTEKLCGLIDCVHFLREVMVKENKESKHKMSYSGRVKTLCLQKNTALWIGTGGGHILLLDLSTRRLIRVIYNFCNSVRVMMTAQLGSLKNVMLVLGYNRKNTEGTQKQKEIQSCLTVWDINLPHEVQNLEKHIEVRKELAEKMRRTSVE
Sequence of AURKA (O14965 whole entry): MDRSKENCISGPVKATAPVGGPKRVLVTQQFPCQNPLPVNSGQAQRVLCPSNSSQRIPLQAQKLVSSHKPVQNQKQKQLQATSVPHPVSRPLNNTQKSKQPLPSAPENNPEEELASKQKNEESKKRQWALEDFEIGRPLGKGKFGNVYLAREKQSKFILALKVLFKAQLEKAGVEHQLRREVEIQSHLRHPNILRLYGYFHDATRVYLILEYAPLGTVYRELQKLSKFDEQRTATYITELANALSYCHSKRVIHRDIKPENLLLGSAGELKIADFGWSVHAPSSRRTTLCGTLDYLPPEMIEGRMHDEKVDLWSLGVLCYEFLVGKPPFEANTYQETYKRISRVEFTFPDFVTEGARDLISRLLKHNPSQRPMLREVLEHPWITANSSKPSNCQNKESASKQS
Sequence of AURKB (Q96GD4 whole entry): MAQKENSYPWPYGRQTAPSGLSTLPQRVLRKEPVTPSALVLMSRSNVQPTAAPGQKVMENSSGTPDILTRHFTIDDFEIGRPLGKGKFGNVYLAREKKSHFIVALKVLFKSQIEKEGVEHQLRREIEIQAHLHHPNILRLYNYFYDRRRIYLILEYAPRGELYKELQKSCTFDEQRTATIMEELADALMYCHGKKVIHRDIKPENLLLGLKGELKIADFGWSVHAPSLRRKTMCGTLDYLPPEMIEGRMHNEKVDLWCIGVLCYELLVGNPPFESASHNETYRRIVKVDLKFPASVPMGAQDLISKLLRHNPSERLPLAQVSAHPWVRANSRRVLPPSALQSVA
Sequence of AURKC (Q9UQB9 whole entry): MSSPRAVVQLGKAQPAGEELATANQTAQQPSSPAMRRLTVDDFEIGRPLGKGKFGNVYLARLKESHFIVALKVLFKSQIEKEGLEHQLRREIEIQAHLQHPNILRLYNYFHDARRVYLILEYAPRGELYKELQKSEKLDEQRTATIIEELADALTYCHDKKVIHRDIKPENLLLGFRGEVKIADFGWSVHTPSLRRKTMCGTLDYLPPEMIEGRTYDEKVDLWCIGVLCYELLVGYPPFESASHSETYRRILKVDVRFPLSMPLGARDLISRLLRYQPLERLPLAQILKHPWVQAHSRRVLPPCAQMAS

SMILES	IC50 (AURKC)	IC50 (NOMO-1)	IC50 (BRDT)	IC50 (MOLM-13)	IC50 (AURKA)	IC50 (MV411)	IC50 (AURKB)	IC50 (BRD4; [1])	IC50 (BRD4; [2])	IC50 797	IC50 (LRRK2)	IC50 (NOMO-1; Homo sapiens)	IC50 (MOLM-13; Homo sapiens)	IC50 (MV411; Homo sapiens, MV4-11)	TF-1 IC50 (TF-1; result in words)	IC50 (BRD4)	IC50 (TF-1; Homo sapiens)	IC50 (Kasumi-1)
CN1C(=O)c2ccccc2N(C)c2nc(Nc3ccc(S(N)(=O)=O)cc3)ccc21 [Compound 2-221]	> 10 µM	> 20 µM	5.66 µM	10.9 µM	> 10 µM	3.25 µM	> 10 µM	2.99 µM	3.27 µM	9.28 µM	–	–	–	–	–	–	–	–
COc1cc(C(=O)NC2CCN(C)CC2)ccc1Nc1ccc2c(n1)N(C)c1ccccc1C(=O)N2C [Compound 2-227]	–	6.36 µM	5.41 µM	4.25 µM	–	1.95 µM	–	2.14 µM	1.87 µM	5.76 µM	> 10 µM	–	–	–	–	–	–	–
COc1cc(C(=O)N2CCC(N3CCN(C)CC3)CC2)ccc1Nc1ccc2c(n1)N(C)c1ccccc1C(=O)N2C [Compound 3]	–	–	3.68 µM	–	–	–	–	1.37 µM	0.813 µM	2.49 µM	> 10 µM	7.23 µM	2.92 µM	1.42 µM	–	–	–	–
C[C@@H](Oc1cc(-n2cnc3ccc(CN4CCN(C)CC4)cc32)sc1C(N)=O)c1ccccc1C(F)(F)F [GSK461364, reference compound]	–	–	> 50 µM	–	–	–	–	–	–	–	–	–	–	–	poor convergence	> 50 µM	–	–
Cc1sc2c(c1C)C(c1ccc(Cl)cc1)=N[C@@H](CC(=O)OC(C)(C)C)c1nnc(C)n1-2 [JQ1, reference compound]	–	–	–	–	–	–	–	–	–	0.092 µM	–	0.172 µM	0.0892 µM	0.0656 µM	–	–	0.109 µM	0.0488 µM
